Columns and labels:
UGT2B4 = target: T1, UGT2B4 (Homo sapiens, UniProt P06133); assay: Inhibitory potency towards UGT isoforms: UGT2B4; type: in vitro ADME
T1 sequence (P06133 24-528): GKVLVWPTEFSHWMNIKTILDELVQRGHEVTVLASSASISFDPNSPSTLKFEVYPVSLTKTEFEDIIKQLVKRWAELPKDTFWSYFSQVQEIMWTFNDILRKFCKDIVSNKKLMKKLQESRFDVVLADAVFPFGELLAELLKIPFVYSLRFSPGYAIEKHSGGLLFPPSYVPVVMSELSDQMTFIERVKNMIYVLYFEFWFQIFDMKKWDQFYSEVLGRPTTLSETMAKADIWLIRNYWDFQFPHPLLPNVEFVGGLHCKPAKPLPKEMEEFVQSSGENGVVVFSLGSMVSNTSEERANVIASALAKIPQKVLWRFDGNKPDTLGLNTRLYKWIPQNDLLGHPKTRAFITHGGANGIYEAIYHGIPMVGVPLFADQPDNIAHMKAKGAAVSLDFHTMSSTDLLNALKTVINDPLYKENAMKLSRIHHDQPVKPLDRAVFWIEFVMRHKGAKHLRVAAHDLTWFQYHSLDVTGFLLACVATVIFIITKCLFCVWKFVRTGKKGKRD

UGT1A1 = target: T2, UGT1A1 (Homo sapiens, UniProt P22309); assay: Inhibitory potency towards UGT isoforms; type: in vitro ADME
T2 sequence (P22309 26-533): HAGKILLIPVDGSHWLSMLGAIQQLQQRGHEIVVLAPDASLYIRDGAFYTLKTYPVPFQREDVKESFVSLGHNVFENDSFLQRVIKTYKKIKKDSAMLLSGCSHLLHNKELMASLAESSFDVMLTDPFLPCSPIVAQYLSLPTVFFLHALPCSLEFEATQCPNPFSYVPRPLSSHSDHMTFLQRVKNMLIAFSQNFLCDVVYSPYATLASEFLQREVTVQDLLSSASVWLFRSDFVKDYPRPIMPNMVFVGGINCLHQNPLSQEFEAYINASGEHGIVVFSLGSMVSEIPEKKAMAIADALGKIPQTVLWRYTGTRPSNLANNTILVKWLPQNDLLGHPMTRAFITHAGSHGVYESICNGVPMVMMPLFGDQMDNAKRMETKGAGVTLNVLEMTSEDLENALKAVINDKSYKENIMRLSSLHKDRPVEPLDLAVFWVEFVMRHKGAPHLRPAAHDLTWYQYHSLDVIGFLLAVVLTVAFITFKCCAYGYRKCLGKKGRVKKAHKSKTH

P-glycoprotein = P-glycoprotein (Homo sapiens, UniProt P08183); assay: Inhibitory potential towards P-gp; type: in vitro ADME
OATP1B1 = target: T3, OATP1B1 (Homo sapiens, UniProt Q9Y6L6); assay: Substrate properties towards OATP1B1; type: in vitro ADME
T3 sequence (Q9Y6L6 1-691): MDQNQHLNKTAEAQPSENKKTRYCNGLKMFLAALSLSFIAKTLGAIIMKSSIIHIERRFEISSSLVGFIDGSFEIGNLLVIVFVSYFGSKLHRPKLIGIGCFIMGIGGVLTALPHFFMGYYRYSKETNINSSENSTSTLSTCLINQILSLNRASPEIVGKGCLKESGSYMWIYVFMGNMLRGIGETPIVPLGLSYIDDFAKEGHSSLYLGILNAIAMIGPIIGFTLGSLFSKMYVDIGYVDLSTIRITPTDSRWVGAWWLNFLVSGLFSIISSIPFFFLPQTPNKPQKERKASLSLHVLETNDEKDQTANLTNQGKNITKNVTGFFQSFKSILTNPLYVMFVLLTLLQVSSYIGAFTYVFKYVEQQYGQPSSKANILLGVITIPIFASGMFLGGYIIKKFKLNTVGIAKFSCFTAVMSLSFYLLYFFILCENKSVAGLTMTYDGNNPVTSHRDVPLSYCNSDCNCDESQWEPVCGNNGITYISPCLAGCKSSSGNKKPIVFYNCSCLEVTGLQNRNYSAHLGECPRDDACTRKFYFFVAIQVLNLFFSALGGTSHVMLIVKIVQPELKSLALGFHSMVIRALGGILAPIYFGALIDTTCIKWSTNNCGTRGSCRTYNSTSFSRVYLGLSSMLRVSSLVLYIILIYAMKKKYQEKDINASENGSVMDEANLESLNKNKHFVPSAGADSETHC

MATE1 = target: T4, MATE1 (Homo sapiens, UniProt Q96FL8); assay: Inhibitory potency towards MATE1; type: in vitro ADME
T4 sequence (Q96FL8 1-570): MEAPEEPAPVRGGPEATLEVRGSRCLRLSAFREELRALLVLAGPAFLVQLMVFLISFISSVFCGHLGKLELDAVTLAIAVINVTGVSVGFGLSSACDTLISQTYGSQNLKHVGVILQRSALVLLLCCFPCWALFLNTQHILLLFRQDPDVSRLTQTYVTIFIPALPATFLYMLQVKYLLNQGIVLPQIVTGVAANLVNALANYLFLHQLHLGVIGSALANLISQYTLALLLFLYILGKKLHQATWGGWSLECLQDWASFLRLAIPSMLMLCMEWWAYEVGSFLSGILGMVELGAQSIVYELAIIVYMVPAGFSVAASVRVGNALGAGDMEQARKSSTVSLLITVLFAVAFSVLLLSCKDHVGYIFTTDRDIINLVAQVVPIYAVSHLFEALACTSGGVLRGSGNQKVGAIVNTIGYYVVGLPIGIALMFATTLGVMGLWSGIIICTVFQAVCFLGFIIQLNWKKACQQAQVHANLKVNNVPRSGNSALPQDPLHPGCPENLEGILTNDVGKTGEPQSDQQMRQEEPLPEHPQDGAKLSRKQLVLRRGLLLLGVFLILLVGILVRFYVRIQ

[1] = multiple oral doses vericiguat 2.5 mg 2 h prior to sacubitril/valsartan; cited from earlier work
[2] = Phase I DDI study with digoxin; type: in vivo, human; conditions: with digoxin 0.375 mg QD vs vericiguat 10 mg alone, fed
[3] = pKa and pH-dependent solubility; type: physicochemical

P-glycoprotein, sequence (P08183 whole entry): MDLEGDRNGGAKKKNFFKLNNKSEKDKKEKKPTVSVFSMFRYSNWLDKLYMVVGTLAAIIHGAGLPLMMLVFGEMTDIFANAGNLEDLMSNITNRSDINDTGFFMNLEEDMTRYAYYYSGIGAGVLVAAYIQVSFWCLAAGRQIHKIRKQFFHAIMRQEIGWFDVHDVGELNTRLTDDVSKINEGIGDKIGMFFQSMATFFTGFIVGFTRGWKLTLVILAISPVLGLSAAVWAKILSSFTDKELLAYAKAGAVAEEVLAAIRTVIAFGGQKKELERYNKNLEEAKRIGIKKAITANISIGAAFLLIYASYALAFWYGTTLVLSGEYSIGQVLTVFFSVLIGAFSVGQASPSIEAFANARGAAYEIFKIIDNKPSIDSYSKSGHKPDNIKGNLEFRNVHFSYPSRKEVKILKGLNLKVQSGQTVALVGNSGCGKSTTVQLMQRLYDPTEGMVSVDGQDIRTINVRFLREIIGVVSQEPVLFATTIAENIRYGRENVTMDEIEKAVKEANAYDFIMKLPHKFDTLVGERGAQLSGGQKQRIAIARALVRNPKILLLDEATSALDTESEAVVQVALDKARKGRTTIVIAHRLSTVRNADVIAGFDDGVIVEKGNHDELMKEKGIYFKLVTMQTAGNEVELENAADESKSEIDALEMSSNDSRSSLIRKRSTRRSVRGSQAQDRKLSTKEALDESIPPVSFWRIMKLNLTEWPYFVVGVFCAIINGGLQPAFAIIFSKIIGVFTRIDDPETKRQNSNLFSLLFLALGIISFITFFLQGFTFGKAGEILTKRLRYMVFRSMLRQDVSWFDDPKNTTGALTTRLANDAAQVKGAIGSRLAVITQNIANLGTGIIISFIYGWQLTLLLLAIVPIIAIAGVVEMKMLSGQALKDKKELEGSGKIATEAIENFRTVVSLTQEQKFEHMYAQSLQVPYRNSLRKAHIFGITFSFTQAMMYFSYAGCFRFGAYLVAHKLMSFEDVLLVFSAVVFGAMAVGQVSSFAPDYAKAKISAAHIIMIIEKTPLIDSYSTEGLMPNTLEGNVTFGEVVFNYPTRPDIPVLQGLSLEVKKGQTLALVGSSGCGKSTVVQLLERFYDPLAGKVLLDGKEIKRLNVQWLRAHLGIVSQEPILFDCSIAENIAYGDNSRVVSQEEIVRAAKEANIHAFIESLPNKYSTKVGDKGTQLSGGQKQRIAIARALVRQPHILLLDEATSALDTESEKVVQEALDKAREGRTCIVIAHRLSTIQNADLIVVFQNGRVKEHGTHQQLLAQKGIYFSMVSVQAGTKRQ

## COC(=O)Nc1c(N)nc(-c2nn(Cc3ccccc3F)c3ncc(F)cc23)nc1N [Vericiguat]
UGT2B4
  IC50: > 50 µM
UGT1A1
  IC50: > 50 µM
P-glycoprotein
  IC50: > 100 µM
OATP1B1
  Substrate of OATP1B1: not a substrate
MATE1
  IC50: > 10 µM
[1]
  Effect on seated blood pressure: no additional effect
[2]
  AUC of vericiguat, point estimate of treatment ratio: 0.980
  Cmax of vericiguat, point estimate of treatment ratio: 1.009
[3]
  pH dependence of solubility: lower in neutral conditions compared with acidic conditions
  pKa: 4.7

Reference: paper PMC7658073 (Clinical Pharmacokinetics, 2020)
